Test results from patent US20020137929A1, “1 - (3-heterocyclylphenyl) isothiourea, -isourea, -guanidine and -amidine herbicidal agents” (Intellectual Property Department, BASF Aktiengesellschaft, priority 1998, published 2002).

Experiments:
CASOB (Sicklepod) [1] = experiment: Preemergence herbicidal evaluation; type: in vivo, Cassia obtusifolia; settings: preemergence, rated 4-5 weeks after treatment, 0-9 scale
Method in brief: (§1)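 Visual 0-9 rating vs control (stand, vigor, malformation, size, chlorosis, overall appearance), scored 4-5 wk after spraying. Seeded soil cups were treated preemergence with compound in aqueous acetone, ~0.0156-0.500 kg/ha equivalent.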

ZEAMX (Corn, Field) = experiment: Preemergence herbicidal evaluation; type: in vivo, Zea mays; settings: preemergence, rated 4-5 weeks after treatment, 0-9 scale
Method in brief: as §1

CYPIR (Rice Flatsedge) = experiment: Preemergence weed control under flooded paddy conditions; type: in vivo, Cyperus iria; settings: rated 3-4 weeks after treatment
Method in brief: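 Herbicidal effect is scored visually on a 0-9 scale against an untreated control, three to four weeks after compounds are pipetted into the flood water (1.5 to 3 cm deep) over seeds planted in silt loam at 0.5 cm depth. Rates: about 0.0313 to 0.500 kg/ha.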

[2] = tested on: CHEAL (Lambsquarters, Common); experiment: Postemergence herbicidal evaluation; type: in vivo, Chenopodium album; settings: postemergence
Method in brief: (§2)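 ~2-wk seedlings; postemergence spray, 40 psi; vehicle 1:1 acetone:water + 0.5% Tween 20; rate ≈0.0156–0.500 kg/ha; greenhouse hold; scored 4–5 wk after treatment, 0–9 scale vs control; repeat tests averaged.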

[3] = tested on: GLXMAW (Soybean, Williams); experiment: Postemergence herbicidal evaluation; type: in vivo, Glycine max, (L.) Merr. cv Williams; settings: postemergence
Method in brief: as §2

CYPSE (Flatsedge) [4] = experiment: Postemergence weed control under flooded paddy conditions; type: in vivo, Cyperus serotinus; settings: postemergence weeds, rated 3 to 4 weeks after treatment
Method in brief: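 Herbicidal effect is judged by eye on a 0–9 scale versus control, 3–4 weeks after dosing. Dosing is into flood water kept 1.5–3 cm over the soil, at about 0.0313–0.500 kg/ha in aqueous/acetone 50/50 v/v, on 3–5 cm weeds and 1.5–2.5-leaf rice seedlings.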

AMBEL (Ragweed, Common) = experiment: Postemergence herbicidal evaluation; type: in vivo, Ambrosia artemisifolia; settings: postemergence
Method in brief: as §2

ECHCG (Barnyardgrass) = experiment: Postemergence herbicidal evaluation; type: in vivo, Echinochloa crus-galli; settings: postemergence
Method in brief: as §2

ORYSAT (Rice, Tebonnet) = experiment: Postemergence herbicidal evaluation; type: in vivo, Oryza sativa, (L.) Tebonnet; settings: postemergence
Method in brief: as §2

GALAP (Galium) [5] = experiment: Postemergence herbicidal evaluation; type: in vivo, Galium aparine; settings: postemergence
Method in brief: as §2

GALAP (Galium) [6] = experiment: Preemergence herbicidal evaluation; type: in vivo, Galium aparine; settings: preemergence, rated 4-5 weeks after treatment, 0-9 scale
Method in brief: as §1

CYPSE (Flatsedge) [7] = experiment: Preemergence weed control under flooded paddy conditions; type: in vivo, Cyperus serotinus; settings: rated 3-4 weeks after treatment
Method in brief: (§3)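 Silt loam, seeds in top 0.5 cm; flood held 1.5-3 cm; test cpd as acetone/water 50/50 into flood water, ~0.0313-0.500 kg/ha a.i.; greenhouse 3-4 wk; visual 0-9 score vs control.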

CASOB (Sicklepod) [8] = experiment: Postemergence herbicidal evaluation; type: in vivo, Cassia obtusifolia; settings: postemergence
Method in brief: as §2

[9] = tested on: SAGPY (Arrowhead (Pygmaea)); experiment: Preemergence weed control under flooded paddy conditions; type: in vivo, Sagittaria pygmaea; settings: rated 3-4 weeks after treatment
Method in brief: as §3

SETVI (Foxtail, Green) = experiment: Postemergence herbicidal evaluation; type: in vivo, Setaria viridis; settings: postemergence
Method in brief: as §2

C=CCN1C(=O)C(CC(=O)OC(C)C(=O)OCC)SC1=Nc1cc(-n2c(=O)ccn(C)c2=O)c(F)cc1Cl [Compound 94, 3-Allyl-2-{{2-chloro-5-[3,6-dihydro-3-methyl-2,6-dioxo-1(2H)-pyrimidinyl]-4-fluorophenyl}imino}-4-oxo-5-thiazolidineacetic acid, ester with ethyl lactate, (R,S)-]
CASOB rating (CASOB (Sicklepod) [1]; 0.0156 kg/ha): 0.0 | CASOB rating (CASOB (Sicklepod) [1]; 0.0313 kg/ha): 0.0 | CASOB rating (CASOB (Sicklepod) [1]; 0.0625 kg/ha): 0.0 | CASOB rating (CASOB (Sicklepod) [1]; 0.1250 kg/ha): 0.0 | CASOB rating (CASOB (Sicklepod) [1]; 0.2500 kg/ha): 0.0 | ZEAMX rating (ZEAMX (Corn, Field); 0.0156 kg/ha): 0.0 | ZEAMX rating (ZEAMX (Corn, Field); 0.0313 kg/ha): 0.0 | ZEAMX rating (ZEAMX (Corn, Field); 0.0625 kg/ha): 0.0 | ZEAMX rating (ZEAMX (Corn, Field); 0.1250 kg/ha): 0.0 | ZEAMX rating (ZEAMX (Corn, Field); 0.2500 kg/ha): 6.0 | CYPIR herbicidal effect rating (CYPIR (Rice Flatsedge); 0.0313 kg/ha): 0.0 | CYPIR herbicidal effect rating (CYPIR (Rice Flatsedge); 0.0625 kg/ha): 3.0 | CYPIR herbicidal effect rating (CYPIR (Rice Flatsedge); 0.1250 kg/ha): 4.0 | CYPIR herbicidal effect rating (CYPIR (Rice Flatsedge); 0.2500 kg/ha): 4.0 | CHEAL herbicidal rating ([2]; rate 0.0158 kg/ha): 9.0 | CHEAL herbicidal rating ([2]; rate 0.0315 kg/ha): 9.0 | CHEAL herbicidal rating ([2]; rate 0.0630 kg/ha): 9.0 | GLXMAW herbicidal rating ([3]; rate 0.0158 kg/ha): 9.0 | GLXMAW herbicidal rating ([3]; rate 0.0315 kg/ha): 9.0 | GLXMAW herbicidal rating ([3]; rate 0.0630 kg/ha): 9.0 | Herbicidal rating CYPSE (CYPSE (Flatsedge) [4]; Rate 0.1250 kg/ha): 6.0 | Herbicidal rating CYPSE (CYPSE (Flatsedge) [4]; Rate 0.2500 kg/ha): 9.0 | AMBEL herbicidal rating (AMBEL (Ragweed, Common); rate 0.0158 kg/ha): 7.0 | AMBEL herbicidal rating (AMBEL (Ragweed, Common); rate 0.0315 kg/ha): 9.0 | AMBEL herbicidal rating (AMBEL (Ragweed, Common); rate 0.0630 kg/ha): 9.0 | ECHCG herbicidal rating (ECHCG (Barnyardgrass); rate 0.0158 kg/ha): 1.0 | ECHCG herbicidal rating (ECHCG (Barnyardgrass); rate 0.0315 kg/ha): 7.0 | ECHCG herbicidal rating (ECHCG (Barnyardgrass); rate 0.0630 kg/ha): 9.0 | ORYSAT herbicidal rating (ORYSAT (Rice, Tebonnet); rate 0.0158 kg/ha): 2.0 | ORYSAT herbicidal rating (ORYSAT (Rice, Tebonnet); rate 0.0315 kg/ha): 4.5 | ORYSAT herbicidal rating (ORYSAT (Rice, Tebonnet); rate 0.0630 kg/ha): 5.0 | GALAP herbicidal rating (GALAP (Galium) [5]; rate 0.0158 kg/ha): 3.0 | GALAP herbicidal rating (GALAP (Galium) [5]; rate 0.0315 kg/ha): 4.0 | GALAP herbicidal rating (GALAP (Galium) [5]; rate 0.0630 kg/ha): 4.0 | GALAP rating (GALAP (Galium) [6]; 0.0156 kg/ha): 0.0 | GALAP rating (GALAP (Galium) [6]; 0.0313 kg/ha): 0.0 | GALAP rating (GALAP (Galium) [6]; 0.0625 kg/ha): 0.0 | GALAP rating (GALAP (Galium) [6]; 0.1250 kg/ha): 3.0 | GALAP rating (GALAP (Galium) [6]; 0.2500 kg/ha): 9.0 | CYPSE herbicidal effect rating (CYPSE (Flatsedge) [7]; 0.1250 kg/ha): 6.0 | CYPSE herbicidal effect rating (CYPSE (Flatsedge) [7]; 0.2500 kg/ha): 9.0 | CASOB herbicidal rating (CASOB (Sicklepod) [8]; rate 0.0158 kg/ha): 0.0 | CASOB herbicidal rating (CASOB (Sicklepod) [8]; rate 0.0315 kg/ha): 3.0 | CASOB herbicidal rating (CASOB (Sicklepod) [8]; rate 0.0630 kg/ha): 9.0 | SAGPY herbicidal effect rating ([9]; 0.0313 kg/ha): 0.0 | SAGPY herbicidal effect rating ([9]; 0.0625 kg/ha): 0.0 | SAGPY herbicidal effect rating ([9]; 0.1250 kg/ha): 5.0 | SAGPY herbicidal effect rating ([9]; 0.2500 kg/ha): 9.0 | SETVI herbicidal rating (SETVI (Foxtail, Green); rate 0.0158 kg/ha): 9.0 | SETVI herbicidal rating (SETVI (Foxtail, Green); rate 0.0315 kg/ha): 9.0 | SETVI herbicidal rating (SETVI (Foxtail, Green); rate 0.0630 kg/ha): 9.0
